According to the supplement of paper PMC10307832:

Experiments:
Assay in all cases: relative viability (nuclei count vs DMSO), 5 days (fraction); higher = more cells survive
XMD8-85 + Vorinostat = compound: CN1CCN(CC1)C2=CC(=C(C=C2)NC3=NC=C4C(=N3)N(C5=CC=CC=C5C(=O)N4C)C)OC [XMD8-85] + O=C(CCCCCCC(=O)Nc1ccccc1)NO [Vorinostat] (partner 1 µM)
Outline: (§1)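 Lung cancer cell lines in 1536-well plates got either a single drug or a fixed anchor-drug dose together with five library-drug doses (not always all listed) in √10 steps, by pin tool, on the day after seeding. Nuclei were counted after 5 days, and relative viability is the treated-to-vehicle ratio of nuclei counts. Values are medians of duplicate plates.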

4EGI-1 + Dasatinib = compound: O=C(O)C(Cc1ccccc1[N+](=O)[O-])=NNc1nc(-c2ccc(Cl)c(Cl)c2)cs1 (mixture of isomers) [4EGI-1] + Cc1nc(Nc2ncc(C(=O)Nc3c(C)cccc3Cl)s2)cc(N2CCN(CCO)CC2)n1 [Dasatinib] (partner 0.075 µM)
Outline: as §1

4EGI-1 + Decitabine = compound: O=C(O)C(Cc1ccccc1[N+](=O)[O-])=NNc1nc(-c2ccc(Cl)c(Cl)c2)cs1 (mixture of isomers) [4EGI-1] + Nc1ncn([C@H]2C[C@H](O)[C@@H](CO)O2)c(=O)n1 [Decitabine] (partner 2 µM)
Outline: as §1

4EGI-1 + Vorinostat = compound: O=C(O)C(Cc1ccccc1[N+](=O)[O-])=NNc1nc(-c2ccc(Cl)c(Cl)c2)cs1 (mixture of isomers) [4EGI-1] + O=C(CCCCCCC(=O)Nc1ccccc1)NO [Vorinostat] (partner 1 µM)
Outline: as §1

Cell Line | relative viability (XMD8-85 + Vorinostat; first compound 0.253 µM) | relative viability (XMD8-85 + Vorinostat; first compound 0.8 µM) | relative viability (XMD8-85 + Vorinostat; first compound 2.53 µM) | relative viability (XMD8-85 + Vorinostat; first compound 8 µM) | relative viability (4EGI-1 + Dasatinib; first compound 0.5 µM) | relative viability (4EGI-1 + Dasatinib; first compound 1.581 µM) | relative viability (4EGI-1 + Dasatinib; first compound 5 µM) | relative viability (4EGI-1 + Dasatinib; first compound 15.81 µM) | relative viability (4EGI-1 + Dasatinib; first compound 50 µM) | relative viability (4EGI-1 + Decitabine; first compound 0.5 µM) | relative viability (4EGI-1 + Decitabine; first compound 1.581 µM) | relative viability (4EGI-1 + Decitabine; first compound 5 µM) | relative viability (4EGI-1 + Decitabine; first compound 15.81 µM) | relative viability (4EGI-1 + Decitabine; first compound 50 µM) | relative viability (4EGI-1 + Vorinostat; first compound 0.5 µM) | relative viability (4EGI-1 + Vorinostat; first compound 1.581 µM) | relative viability (4EGI-1 + Vorinostat; first compound 5 µM) | relative viability (4EGI-1 + Vorinostat; first compound 15.81 µM) | relative viability (4EGI-1 + Vorinostat; first compound 50 µM) | relative viability (XMD8-85 + Vorinostat; first compound 0.08 µM)
NCI-H1793 | 0.665 | 0.63 | 0.916 | 0.497 | 0.349 | 0.364 | 0.38 | 0.374 | 0.347 | 0.557 | 0.333 | 0.442 | 0.427 | 0.238 | 1.03 | 0.823 | 0.999 | 0.516 | 0.353 | –
NCI-H3122 | 1.17 | 1.03 | 1.08 | 1.38 | 0.967 | 0.739 | 0.881 | 0.841 | 0.239 | 0.452 | 0.487 | 0.454 | 0.521 | 0.351 | 1.04 | 1.11 | 1.03 | 1.11 | 0.773 | 1.02
NCI-H596 | 0.559 | 0.495 | 0.53 | 0.361 | 0.714 | 0.566 | 0.584 | 0.582 | 0.491 | 1.01 | 1.11 | 1.16 | 0.942 | 0.569 | 0.648 | 0.495 | 0.6 | 0.475 | 0.375 | 0.517
NCI-H2087 | 0.967 | 0.806 | 0.708 | 0.456 | 0.837 | 0.676 | 0.918 | 0.493 | 0.27 | 0.376 | 0.338 | 0.258 | 0.218 | 0.158 | 0.694 | 0.958 | 0.724 | 0.995 | 0.343 | 0.668
NCI-H2342 | 0.75 | 0.72 | 0.927 | 0.991 | 0.299 | 0.3 | 0.292 | 0.292 | 0.257 | 0.757 | 0.704 | 0.742 | 0.737 | 0.731 | 0.765 | 0.664 | 0.833 | 0.835 | 0.712 | 0.767
NCI-H1563 | – | – | – | – | 0.441 | 0.435 | 0.441 | 0.494 | 0.424 | – | – | – | – | – | – | – | – | – | – | –
NCI-H1395 | 0.668 | 0.739 | 0.887 | 0.406 | 0.423 | 0.471 | 0.436 | 0.442 | 0.32 | 0.746 | – | 0.817 | 0.695 | 0.515 | 0.833 | – | 0.858 | 0.669 | 0.397 | 0.556
NCI-H460 | 0.786 | 0.672 | 0.766 | 0.146 | 0.447 | – | 0.515 | 0.307 | 0.0847 | 0.562 | 0.246 | 0.476 | 0.188 | 0.0663 | 0.713 | 0.353 | 0.714 | 0.436 | 0.0364 | 0.53
NCI-H2228 | 0.59 | 0.585 | 0.842 | 0.392 | 0.472 | 0.653 | 0.496 | 0.552 | 0.13 | – | – | – | – | – | 0.749 | 0.609 | 0.588 | 0.539 | 0.123 | 0.523
HOP-62 | 0.673 | 0.622 | 0.598 | 0.231 | 0.796 | 0.587 | 0.668 | 0.568 | 0.473 | 0.272 | 0.199 | 0.215 | 0.202 | 0.183 | 0.65 | 0.346 | 0.715 | 0.616 | 0.104 | 0.605
LC-2-ad | – | 0.702 | 0.691 | 0.434 | 0.697 | – | 0.651 | 0.199 | 0.161 | 0.876 | 0.859 | 0.742 | 0.587 | 0.444 | 0.736 | 0.62 | 0.617 | 0.356 | 0.207 | 0.739
EKVX | 0.8 | 0.851 | 0.91 | 0.626 | 0.529 | 0.641 | 0.443 | 0.298 | 0.19 | 0.386 | – | 0.371 | 0.276 | 0.319 | 0.852 | 0.746 | 0.759 | 0.309 | 0.203 | 0.631
LCLC-103H | 0.77 | 0.784 | 0.801 | 0.585 | 0.531 | 0.503 | 0.503 | 0.523 | 0.236 | 0.778 | 0.733 | 0.688 | 0.666 | 0.458 | 0.619 | 0.75 | 0.851 | 0.746 | 0.282 | 0.799
NCI-H1651 | 0.562 | 0.5 | 0.546 | 0.449 | 0.36 | 0.377 | 0.44 | 0.346 | 0.174 | 0.626 | 0.553 | 0.734 | 0.576 | 0.286 | 0.523 | 0.477 | 0.629 | 0.481 | 0.408 | 0.602
SK-LU-1 | – | 0.92 | 0.9 | 0.694 | 0.189 | 0.186 | 0.178 | 0.198 | 0.185 | 0.682 | 0.65 | 0.653 | 0.48 | 0.367 | 0.717 | 0.786 | 0.817 | 0.757 | 0.289 | –
NCI-H2405 | 0.992 | 1.08 | 1.06 | 0.549 | 0.204 | 0.228 | 0.225 | 0.211 | 0.172 | 0.791 | – | 0.755 | 0.734 | 0.478 | 1.07 | – | 1.02 | 1.01 | 0.35 | 0.993
NCI-H1648 | 0.474 | 0.265 | 0.244 | 0.292 | – | – | – | – | – | 0.462 | 0.501 | 0.518 | 0.537 | 0.416 | 1.18 | 0.388 | 0.351 | 0.414 | 0.474 | 0.522
HCC-44 | 1.07 | 1.07 | 1.16 | 1.04 | – | – | – | – | – | 0.964 | 0.905 | 0.936 | 0.924 | 0.432 | 1.06 | 0.872 | 0.988 | 0.916 | 0.566 | 1.11
